Laboratory results: patent US20020182587A1, “Methods and compositions for the treatment and prevention of smooth muscle cell proliferation” (priority 2001, published 2002)

What was measured:
[1] = tested on: neointima formation following balloon catheter-induced injury of the common carotid arteries; experiment: Neointima formation after balloon catheter-induced injury of the common carotid arteries; assay type: in vivo, male Wistar rats
Method: Two of test compounds discovered using the methods of the present invention, particularly shown in Example VI, compositions RUS 3052 and RUS 3108, were evaluated for efficacy in the reduction of neointima formation following balloon catheter-induced injury of the common carotid arteries of male Wistar rats. Thirty-two rats were divided into groups of eight animals per group: two test compound groups and two control groups. The two control groups were the positive control, 5 mg/kg probucol, and the negative control, the vehicle for the test compositions and the positive control probucol. […] The vehicle solution was 10% DMSO, 10% cremophor, 20% propylene glycol in water for injection. Test compositions RUS 3052 and RUS 3108 were initially administered at 5 mg/kg up to and including the day of surgery. Starting the day after surgery, until the end of the study, the dosage of all compositions was lowered to 1 mg/kg. The test compositions were prepared by combining 5 mg of the test compound or control with 100 μl DMSO, 100 μl cremophor EL, and 200 μl propylene glycol with intermittent mixing using a cyclomixer. Water for injection was added in 100 μl aliquots to give a final volume of 1 ml.
The test compositions and controls were administered daily by intraperitoneal injection starting 72 hours prior to the surgical procedure and continued until necropsy, 14 days after the procedure. One animal from each of the four groups underwent the surgical procedure each day using a #2F Fogarty embolectomy catheter. An embolectomy catheter was introduced into the right external carotid artery and retrogradely passed to the aortic arch through the common carotid artery. The balloon was inflated with sterile saline and then pulled to the common carotid-external carotid bifurcation. […]
Fourteen days post-surgery, the animals of Example VII were euthanized and the damaged right carotid arteries were collected, sectioned and stained with modified elastin-trichrome, and then analyzed for neointima formation that was quantified by histomorphometric analysis. […]

human aortic SMC = experiment: (3H)thymidine DNA synthesis / proliferation of sub-confluent SMC; assay type: cell-based; conditions: purified perlecan added to 10% serum-containing medium, 24 h
Method: Smooth muscle cells reach quiescence during serum starvation resulting in a blockade of DNA synthesis. […] The cells used in this Example and the other examples herein were human aortic SMC, grown in basal medium supplemented with growth factors, bFGF and epidermal growth factor (EGF) (Clonetics, San Diego, Calif.).
The addition of perlecan to serum-containing medium inhibited SMC growth by 70% (FIG. 2). Sub-confluent SMC (40-50% confluence) were incubated in serum-free medium or 10% serum-containing medium with or without purified perlecan for 24 h. DNA synthesis was then determined by incubating cells for another 5 h in medium containing (^3H)thymidine. TCA precipitable (DNA) thymidine counts were determined and expressed as percentage of DNA synthesis in cells grown in 10%FBS.
Perlecan, induced in serum-free conditions, was required for the blockade of DNA synthesis observed in serum-free conditions. The anti-perlecan antibody of Example I was used to block perlecan. Sub-confluent levels of SMC (40-50% confluence) were incubated in serum-free medium containing 0, 5, 10 and 20 μg of mouse IgG or anti-perlecan IgG for 24 hours. DNA synthesis was then determined by incubating cells for another 5 hours in medium containing (^3H)thymidine. TCA precipitable (DNA) (^3H)thymidine counts were determined and expressed as percentage of DNA synthesis in cells grown in 10% FBS. […]

Row | Molecule | IA/MA Average ± STD (n), Based on Section Averages ([1]; rat, i.p. daily, 5 mg/kg up to surgery then 1 mg/kg, 14 days post-surgery, all sections within group) | IA/MA Average ± STD (n), Based on Animal Averages ([1]; rat, i.p. daily, 5 mg/kg up to surgery then 1 mg/kg, 14 days post-surgery, sections with IA/MA > 0.0915) | reduction of neointima formation in comparison to the negative control group ([1]; significance set at p<0.20) | inhibition of SMC growth (DNA synthesis, percentage of cells grown in 10% FBS) (human aortic SMC)
1 | CC(C)(Sc1cc(C(C)(C)C)c(O)c(C(C)(C)C)c1)Sc1cc(C(C)(C)C)c(O)c(C(C)(C)C)c1 [Probucol, probucol] | 0.71 ± 0.30 (9) | 0.65 ± 0.25 (3) | effective in significantly reducing neointima formation | 
2 | perlecan |  |  |  | 70%
